Experiment: Titration of 1% w/w solution with 0.5 M NaOH until precipitate forms
Assay type: physicochemical
Description: The finished material was tested by titration with 0.5 M NaOH. A 1% w/w solution was made of the material by placing 1.0042 g in a 100 mL of deionized water. 0.5 M NaOH was then titrated into this solution. The material absorbed 23.8 mL of the 0.5 M NaOH while the solution pH rose from about 2 to about 10.2, whereupon a precipitate formed.

0.5 M NaOH absorbed until a precipitate formed (1% w/w solution in 100 mL deionized water, titrated with 0.5 M NaOH): 5.8 mL | solution pH at which a precipitate formed (1% w/w solution titrated with 0.5 M NaOH): above 10.2
Substance: zinc EDTA chelate [pure zinc EDTA chelate]
